We go through eight molecules from patent US20250154146A1, “PROTEIN DEGRADERS DEVELOPED ON BASIS OF BCL-2 FAMILY PROTEIN LIGAND COMPOUNDS AND USE THEREOF” (ShanghaiTech University, priority 2022, published 2025).

Holding throughout (format): cell-based
Assay [1] concerns Molt-4 cells. Kind of assay: Thiazolyl blue cell proliferation assay in Molt-4 cells. The conditions noted are these: Homo sapiens, Molt-4 acute lymphocytic leukemia cells, 72 hours, read-out: IC50 (nM) for inhibiting the proliferation of Molt-4 cells. The source says:
(§1) The cell lines RS4;11 (human acute lymphocytic leukemia cells), Molt-4 cells (human acute lymphocytic leukemia cells), MV4;11 (human myeloid monocytic leukemia cells), and Light II cells were commercially available or purchased from ATCC (American Type Culture Collection) and routinely cultured according to instructions.
3) Study on the proliferation inhibition effects induced by the compounds of the present disclosure designed based on ABT199/263 against BCL-XL-dependent Molt-4 cells:
(§2) The specific steps were as follows: Molt-4 cells were seeded at a density of 2×10^4 cells/well in 180 μL of serum-containing RPMI 1640 culture medium. DT2216 and the compounds of the present disclosure were added to the cell suspension at corresponding concentration gradients. DT2216 and DMSO were used as positive and vehicle control, respectively. The positive control and negative control were treated with the same treatment method as the compounds of the present disclosure. After treating the cells with the compounds of the present disclosure for 72 hours, thiazole blue solution (5 mg/mL) was added at 20 μL/well to the cell suspension, followed by incubation for 3 hours at 37° C. in an incubator with 5% CO2. Then, triple solution (0.1 g/mL SDS, 5% isopropyl alcohol, 10 mM hydrochloric acid) was added, followed by incubation for 4-6 hours at 37° C. in an incubator with 5% CO2. After confirming that all the crystal violets were dissolved under inverted biological microscopy, the absorbance was measured at 490 nm using an Epoch microplate reader (Biotek Corporation). The growth inhibition of the compounds of the present disclosure on the cells was plotted by GraphPad Prism 8 software, and the IC50 values of the compounds of the present disclosure were calculated therefrom. The experiment had 3 replicates per group and was repeated at least three times.

The test system of assay [2] is MV4;11 cells. In words: Thiazolyl blue cell proliferation assay in MV4;11 cells. The conditions noted are these: Homo sapiens, MV4;11 myeloid monocytic leukemia cells, 48 hours, read-out: IC50 (nM) for inhibiting the proliferation of MV4;11 cells.
Source text: as §1
2) Study on the proliferation inhibition effects induced by the compounds of the present disclosure designed based on ABT199/263 against BCL-XL-dependent MV4;11 cells:
as §2, with “MV4;11” for “Molt-4”, “90” for “180”, “IMDM” for “RPMI 1640”, “48” for “72”, “10 µL/well” for “20 μL/well”

For assay [3], the system named is RS4;11 cells. In words: Thiazolyl blue cell proliferation assay in RS4;11 cells. Particulars: Homo sapiens, RS4;11 acute lymphoblastic leukemia cells, 48 hours, read-out: IC50 (nM) for inhibiting the proliferation of RS4;11 cells.
Source text: as §1
1) Study on the proliferation inhibition effects induced by the compounds of the present disclosure designed based on ABT199/263 against BCL-XL-dependent RS4;11 cells:
as §2, with “RS4;11” for “Molt-4”, “3×10^4” for “2×10^4”, “90” for “180”, “RPMI-1640” for “RPMI 1640”, “48” for “72”, “10” for “20”
We conducted dose-dependent experiments on the designed and synthesized compounds of the present disclosure in RS4;11 cells, which are highly sensitive to BCL-XL inhibitors. The cells were treated with 7 different concentrations (starting at the highest concentration of 1000 nM or 100 nM; 10-fold serial dilutions) of the compounds for 48 hours, and then tested using the thiazolyl blue cell proliferation assay.

On to `CC1(C)CCC(CN2CCN(c3ccc(C(=O)NS(=O)(=O)c4ccc(NC[C@H]5CC[C@H](N6CCN(Cc7ccc8c(c7)C(=O)N(C7CCC(=O)NC7=O)C8=O)CC6)CC5)c([N+](=O)[O-])c4)c(Oc4cnc5[nH]ccc5c4)c3)CC2)=C(c2ccc(Cl)cc2)C1` (relative stereo) [BCL-03188, 2-((1H-pyrrolo[2,3-b]pyridin-5-yl)oxy)-4-(4-((4′-chloro-5,5-dimethyl-3,4,5,6-tetrahydro-[1,1′-biphenyl]-2-yl)methyl)piperazin-1-yl)-N-((4-((((trans)-4-(4-((2-(2,6-dioxopiperidin-3-yl)-1,3-dioxoisoindolin-5-yl)methyl)piperazin-1-yl)cyclohexyl)methyl)amino)-3-nitrophenyl)sulfonyl)benzamide], for which the IC50 in assay [1] was < 10 nM; in assay [2], < 20 nM; in assay [3], < 20 nM.

For `C[C@H]1CN([C@H]2CC[C@H](CNc3ccc(S(=O)(=O)NC(=O)c4ccc(N5CCN(CC6=C(c7ccc(Cl)cc7)CC(C)(C)CC6)CC5)cc4Oc4cnc5[nH]ccc5c4)cc3[N+](=O)[O-])CC2)CCN1Cc1cc(Br)c2c(c1)C(=O)N(C1CCC(=O)NC1=O)C2` (stereo partly drawn) [BCL-03170, 2-((1H-pyrrolo[2,3-b]pyridin-5-yl)oxy)-N-((4-((((trans)-4-((3S)-4-((7-bromo-2-(2,6-dioxopiperidin-3-yl)-3-oxoisoindolin-5-yl)methyl)-3-methylpiperazin-1-yl)cyclohexyl)methyl)amino)-3-nitrophenyl)sulfonyl)-4-(4-((4′-chloro-5,5-dimethyl-3,4,5,6-tetrahydro-[1,1′-biphenyl]-2-yl)methyl)piperazin-1-yl)benzamide], in assay [1], the IC50 was < 10 nM.

`C[C@@H]1CN([C@H]2CC[C@@H](CNc3ccc(S(=O)(=O)NC(=O)c4ccc(N5CCN(CC6=C(c7ccc(Cl)cc7)CC(C)(C)CC6)CC5)cc4Oc4cnc5[nH]ccc5c4)cc3[N+](=O)[O-])CC2)CCN1Cc1cc(Br)c2c(c1)C(=O)N(C1CCC(=O)NC1=O)C2` (stereo partly drawn) [BCL-03171, 2-((1H-pyrrolo[2,3-b]pyridin-5-yl)oxy)-N-((4-((((cis)-4-((3R)-4-((7-bromo-2-(2,6-dioxopiperidin-3-yl)-3-oxoisoindolin-5-yl)methyl)-3-methylpiperazin-1-yl)cyclohexyl)methyl)amino)-3-nitrophenyl)sulfonyl)-4-(4-((4′-chloro-5,5-dimethyl-3,4,5,6-tetrahydro-[1,1′-biphenyl]-2-yl)methyl)piperazin-1-yl)benzamide]: the IC50 in assay [1] is < 10 nM.

Take `C[C@@H]1CN([C@H]2CC[C@H](CNc3ccc(S(=O)(=O)NC(=O)c4ccc(N5CCN(CC6=C(c7ccc(Cl)cc7)CC(C)(C)CC6)CC5)cc4Oc4cnc5[nH]ccc5c4)cc3[N+](=O)[O-])CC2)CCN1Cc1cc(Br)c2c(c1)C(=O)N(C1CCC(=O)NC1=O)C2` (stereo partly drawn) [BCL-03172, 2-((1H-pyrrolo[2,3-b]pyridin-5-yl)oxy)-N-((4-((((trans)-4-((3R)-4-((7-bromo-2-(2,6-dioxopiperidin-3-yl)-3-oxoisoindolin-5-yl)methyl)-3-methylpiperazin-1-yl)cyclohexyl)methyl)amino)-3-nitrophenyl)sulfonyl)-4-(4-((4′-chloro-5,5-dimethyl-3,4,5,6-tetrahydro-[1,1′-biphenyl]-2-yl)methyl)piperazin-1-yl)benzamide]: in assay [1], the IC50 is < 10 nM.

`CC1(C)CCC(c2ccc(Cl)cc2)=C(CN2CCN(c3ccc(C(=O)NS(=O)(=O)c4ccc(N[C@H](CCN5CCN(Cc6cc(Br)c7c(c6)C(=O)N(C6CCC(=O)NC6=O)C7)CC5)CSc5ccccc5)c(S(=O)(=O)C(F)(F)F)c4)cc3)CC2)C1` (stereo partly drawn) [BCL-03178, N-((4-(((2R)-4-(4-((7-bromo-2-(2,6-dioxopiperidin-3-yl)-3-oxoisoindolin-5-yl)methyl)piperazin-1-yl)-1-(phenylthio)butan-2-yl)amino)-3-((trifluoromethyl)sulfonyl)phenyl)sulfonyl)-4-(4-((4′-chloro-4,4-dimethyl-3,4,5,6-tetrahydro-[1,1′-biphenyl]-2-yl)methyl)piperazin-1-yl)benzamide]: the IC50 in assay [1] is < 10 nM.

For `CC1(C)CCC(CN2CCN(c3ccc(C(=O)NS(=O)(=O)c4ccc(NC[C@H]5CC[C@H](N6CCN(Cc7ccc8c(c7)CN(C7CCC(=O)NC7=O)C8=O)CC6)CC5)c(S(=O)(=O)C(F)(F)F)c4)c(Oc4cnc5[nH]ccc5c4)c3)CC2)=C(c2ccc(Cl)cc2)C1` (stereo partly drawn) [BCL-03179, 2-((1H-pyrrolo[2,3-b]pyridin-5-yl)oxy)-4-(4-((4′-chloro-5,5-dimethyl-3,4,5,6-tetrahydro-[1,1′-biphenyl]-2-yl)methyl)piperazin-1-yl)-N-((4-((((trans)-4-(4-((2-(2,6-dioxopiperidin-3-yl)-1-oxoisoindolin-5-yl)methyl)piperazin-1-yl)cyclohexyl)methyl)amino)-3-((trifluoromethyl)sulfonyl)phenyl)sulfonyl)benzamide], the IC50 in assay [1] was < 10 nM; in assay [2] it was < 20 nM; in assay [3], < 20 nM.

For `CC1(C)CCC(c2ccc(Cl)cc2)=C(CN2CCN(c3ccc(C(=O)NS(=O)(=O)c4ccc(NC[C@H]5CC[C@H](N6CCN(Cc7ccc8c(c7)CN(C7CCC(=O)NC7=O)C8=O)CC6)CC5)c(S(=O)(=O)C(F)(F)F)c4)cc3)CC2)C1` (stereo partly drawn) [BCL-03180, 4-(4-((4′-chloro-4,4-dimethyl-3,4,5,6-tetrahydro-[1,1′-biphenyl]-2-yl)methyl)piperazin-1-yl)-N-((4-((((trans)-4-(4-((2-(2,6-dioxopiperidin-3-yl)-1-oxoisoindolin-5-yl)methyl)piperazin-1-yl)cyclohexyl)methyl)amino)-3-((trifluoromethyl)sulfonyl)phenyl)sulfonyl)benzamide], the IC50 in assay [3] was < 20 nM.

Regarding `CC1(C)CCC(c2ccc(Cl)cc2)=C(CN2CCN(c3ccc(C(=O)NS(=O)(=O)c4ccc(NC[C@H]5CC[C@H](N6CCN(Cc7ccc8c(c7)CN(C7CCC(=O)NC7=O)C8=O)CC6)CC5)c([N+](=O)[O-])c4)cc3)CC2)C1` (stereo partly drawn) [BCL-03181, 4-(4-((4′-chloro-4,4-dimethyl-3,4,5,6-tetrahydro-[1,1′-biphenyl]-2-yl)methyl)piperazin-1-yl)-N-((4-((((trans)-4-(4-((2-(2,6-dioxopiperidin-3-yl)-1-oxoisoindolin-5-yl)methyl)piperazin-1-yl)cyclohexyl)methyl)amino)-3-nitrophenyl)sulfonyl)benzamide], the IC50 in assay [3] is < 20 nM.
